≈ marks a conversion by molar mass, not a printed value.
Legend:
[1] = target: Epidermal growth factor receptor (Homo sapiens, UniProt P00533); assay: Inhibition of EGFR (unknown origin) by Z-LYTE assay
[2] = target: Receptor tyrosine-protein kinase erbB-2 (Homo sapiens, UniProt P04626); assay: Inhibition of HER2 (unknown origin) by Z-LYTE assay
KB = assay: Cytotoxicity against human KB cells after 48 hrs; assay type: cell-based
L1210 = assay: Cytotoxicity against mouse L1210 cells after 48 hrs; assay type: cell-based; conditions: L1210, 48 h

Receptor tyrosine-protein kinase erbB-2, sequence (P04626 whole entry): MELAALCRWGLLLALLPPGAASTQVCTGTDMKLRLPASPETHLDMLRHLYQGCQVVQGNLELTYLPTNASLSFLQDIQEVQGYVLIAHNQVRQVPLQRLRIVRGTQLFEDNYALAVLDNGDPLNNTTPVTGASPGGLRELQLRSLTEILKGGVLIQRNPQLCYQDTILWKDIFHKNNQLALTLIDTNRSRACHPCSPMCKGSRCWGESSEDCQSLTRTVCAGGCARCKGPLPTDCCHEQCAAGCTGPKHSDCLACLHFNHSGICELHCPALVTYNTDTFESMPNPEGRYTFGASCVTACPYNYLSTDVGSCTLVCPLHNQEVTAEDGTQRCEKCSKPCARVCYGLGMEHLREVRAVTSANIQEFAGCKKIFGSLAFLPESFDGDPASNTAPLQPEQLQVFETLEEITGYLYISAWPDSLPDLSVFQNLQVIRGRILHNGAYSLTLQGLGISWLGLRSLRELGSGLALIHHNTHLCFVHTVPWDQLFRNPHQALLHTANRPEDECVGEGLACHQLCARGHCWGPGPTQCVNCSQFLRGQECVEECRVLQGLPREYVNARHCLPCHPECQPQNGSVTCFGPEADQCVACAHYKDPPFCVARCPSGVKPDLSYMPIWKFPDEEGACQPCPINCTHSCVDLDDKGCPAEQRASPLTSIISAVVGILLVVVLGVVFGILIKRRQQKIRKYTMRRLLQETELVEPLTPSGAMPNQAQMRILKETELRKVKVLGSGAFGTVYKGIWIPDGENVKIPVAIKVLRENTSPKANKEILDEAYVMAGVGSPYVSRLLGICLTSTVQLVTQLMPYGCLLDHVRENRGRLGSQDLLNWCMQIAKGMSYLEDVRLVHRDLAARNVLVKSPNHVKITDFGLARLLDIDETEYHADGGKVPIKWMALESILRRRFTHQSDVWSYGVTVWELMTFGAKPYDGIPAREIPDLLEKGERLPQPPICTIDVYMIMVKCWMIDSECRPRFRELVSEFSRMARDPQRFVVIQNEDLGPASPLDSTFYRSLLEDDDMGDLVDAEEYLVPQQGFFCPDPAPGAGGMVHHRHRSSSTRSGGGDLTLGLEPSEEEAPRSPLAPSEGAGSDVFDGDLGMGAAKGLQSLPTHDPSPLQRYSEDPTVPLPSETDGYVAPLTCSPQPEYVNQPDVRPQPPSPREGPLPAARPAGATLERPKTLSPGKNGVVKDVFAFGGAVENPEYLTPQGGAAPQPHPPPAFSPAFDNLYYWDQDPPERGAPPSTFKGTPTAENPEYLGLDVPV
Epidermal growth factor receptor, sequence (P00533 whole entry): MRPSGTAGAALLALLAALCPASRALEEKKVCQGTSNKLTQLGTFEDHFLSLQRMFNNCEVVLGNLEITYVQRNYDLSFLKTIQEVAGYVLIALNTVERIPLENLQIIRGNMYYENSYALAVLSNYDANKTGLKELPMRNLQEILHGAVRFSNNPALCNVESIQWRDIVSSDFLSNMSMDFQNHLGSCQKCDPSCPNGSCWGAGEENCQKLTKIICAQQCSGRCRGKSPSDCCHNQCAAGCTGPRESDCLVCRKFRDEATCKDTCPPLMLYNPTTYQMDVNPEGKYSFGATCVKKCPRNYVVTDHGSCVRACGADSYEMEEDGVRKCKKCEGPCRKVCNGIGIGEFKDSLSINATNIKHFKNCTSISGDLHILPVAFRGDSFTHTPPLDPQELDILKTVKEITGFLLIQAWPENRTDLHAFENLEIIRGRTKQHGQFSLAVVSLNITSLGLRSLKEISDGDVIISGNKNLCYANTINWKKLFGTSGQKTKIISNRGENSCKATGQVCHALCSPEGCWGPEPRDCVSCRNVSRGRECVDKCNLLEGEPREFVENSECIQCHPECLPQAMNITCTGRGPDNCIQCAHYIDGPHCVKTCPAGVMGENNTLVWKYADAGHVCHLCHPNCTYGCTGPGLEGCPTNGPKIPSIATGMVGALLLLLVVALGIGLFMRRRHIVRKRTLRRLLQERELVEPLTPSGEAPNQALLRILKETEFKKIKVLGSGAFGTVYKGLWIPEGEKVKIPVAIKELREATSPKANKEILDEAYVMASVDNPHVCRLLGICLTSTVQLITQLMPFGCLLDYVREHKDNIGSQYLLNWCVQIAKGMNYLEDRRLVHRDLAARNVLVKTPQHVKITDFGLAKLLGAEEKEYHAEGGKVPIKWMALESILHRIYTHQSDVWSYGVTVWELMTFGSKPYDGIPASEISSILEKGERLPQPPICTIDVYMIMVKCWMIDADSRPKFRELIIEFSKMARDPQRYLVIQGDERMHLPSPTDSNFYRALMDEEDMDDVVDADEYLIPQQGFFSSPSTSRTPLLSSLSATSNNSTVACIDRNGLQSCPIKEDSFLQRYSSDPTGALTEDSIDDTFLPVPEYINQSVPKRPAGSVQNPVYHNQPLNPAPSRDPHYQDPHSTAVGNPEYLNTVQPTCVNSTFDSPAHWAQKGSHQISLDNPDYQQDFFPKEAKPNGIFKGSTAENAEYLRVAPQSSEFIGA

Row | SMILES | IC50 [1] [µM] | IC50 [2] [µM] | IC50 (KB) [µg/mL] | IC50 (L1210) [µg/mL]
1 | CC1=CCC[C@](C)(CC/C(C)=C/CC2=C(O)C(=O)C=C(N[C@H](CO)C(=O)O)C2=O)[C@@H]1C | > 463 | > 463 | > 10 | > 10
2 | C=C1[C@H](C)CCC[C@]1(C)CC/C(C)=C/CC1=C(O)C(=O)C=C(N[C@@H](CO)C(=O)O)C1=O [METACHROMIN P] | > 463 | 41.7 | > 10 | > 10
3 | CC1=CCC[C@](C)(CC/C(C)=C/CC2=C(O)C(=O)C=C(N[C@@H](C(=O)O)[C@H](C)O)C2=O)[C@@H]1C | > 449 | 215 | > 10 | > 10
4 | CC1=CCC[C@](C)(CC/C(C)=C/CC2=C(O)C(=O)C=C(N[C@H](C(=O)O)[C@@H](C)O)C2=O)[C@@H]1C [METACHROMIN O] | > 449 | 60.6 | > 10 | > 10
5 | C=C1[C@H](C)CCC[C@]1(C)CC/C(C)=C/CC1=C(O)C(=O)C=C(N[C@@H](C(=O)O)[C@H](C)O)C1=O | > 449 | > 449 | > 10 | 4.6 (≈ 10.3 µM)
6 | COC1=CC(=O)C(O)=C(C/C=C(\C)CC[C@@]2(C)CCC=C(C)[C@H]2C)C1=O [METACHROMIN C] | > 558 | > 558 | > 10 | 
7 | CC1=CCC[C@](C)(CC/C(C)=C/CC2=C(O)C(=O)C=C(N[C@H](C(=O)O)[C@H](C)O)C2=O)[C@@H]1C | > 449 | 89.8 | > 10 | > 10
8 | C=C1[C@H](C)CCC[C@]1(C)CC/C(C)=C/CC1=C(O)C(=O)C=C(N[C@H](CO)C(=O)O)C1=O | > 463 | > 463 | > 10 | 2.6 (≈ 6.03 µM)
9 | C=C1[C@H](C)CCC[C@]1(C)CC/C(C)=C/CC1=C(O)C(=O)C=C(N[C@H](C(=O)O)[C@@H](C)O)C1=O [METACHROMIN N] | > 449 | 426 | > 10 | > 10
10 | CC1=CCC[C@](C)(CC/C(C)=C/CC2=C(O)C(=O)C=C(NCC(=O)O)C2=O)[C@@H]1C [METACHROMIN M] | > 498 | 197 | 5.4 (≈ 13.4 µM) | 3.5 (≈ 8.72 µM)
11 | CC1=CCC[C@](C)(CC/C(C)=C/CC2=C(O)C(=O)C=C(N[C@@H](CO)C(=O)O)C2=O)[C@@H]1C [METACHROMIN Q] | > 463 | 51 | > 10 | > 10
12 | C=C1[C@H](C)CCC[C@]1(C)CC/C(C)=C/CC1=C(O)C(=O)C=C(OC)C1=O [METACHROMIN A] | > 558 | > 558 | > 10 | 2.4 (≈ 6.69 µM)

Now from value to molecule, other results behind:

Row | IC50 [1] [µM] | IC50 [2] [µM] | SMILES | IC50 (KB) [µg/mL] | IC50 (L1210) [µg/mL]
13 | 269 | > 449 | CC1=CCC[C@](C)(CC/C(C)=C/CC2=C(O)C(=O)C=C(N[C@@H](C(=O)O)[C@@H](C)O)C2=O)[C@@H]1C | > 10 | > 10
14 | > 449 | > 449 | C=C1[C@H](C)CCC[C@]1(C)CC/C(C)=C/CC1=C(O)C(=O)C=C(N[C@H](C(=O)O)[C@H](C)O)C1=O | > 10 | > 10
15 | 435 | 104 | C=C1[C@H](C)CCC[C@]1(C)CC/C(C)=C/CC1=C(O)C(=O)C=C(N[C@H](C(=O)O)C(C)C)C1=O | > 10 | 4.4 (≈ 9.92 µM)
16 | 334 | 83.4 | CC1=CCC[C@](C)(CC/C(C)=C/CC2=C(O)C(=O)C=C(N[C@@H](C(=O)O)C(C)C)C2=O)[C@@H]1C | > 10 | 3 (≈ 6.76 µM)
17 | 211 | 180 | C=C1[C@H](C)CCC[C@]1(C)CC/C(C)=C/CC1=C(O)C(=O)C=C(N[C@@H](C(=O)O)[C@@H](C)O)C1=O | > 10 | > 10
18 | 293 | 142 | C=C1[C@H](C)CCC[C@]1(C)CC/C(C)=C/CC1=C(O)C(=O)C=C(N[C@@H](C(=O)O)C(C)C)C1=O | 6.2 (≈ 14 µM) | 3.4 (≈ 7.66 µM)
19 | 293 | 78.9 | CC1=CCC[C@](C)(CC/C(C)=C/CC2=C(O)C(=O)C=C(N[C@H](C(=O)O)C(C)C)C2=O)[C@@H]1C | > 10 | 3.4 (≈ 7.66 µM)
20 | 491 | 311 | C=C1[C@H](C)CCC[C@]1(C)CC/C(C)=C/CC1=C(O)C(=O)C=C(NCC(=O)O)C1=O [METACHROMIN L] | 4 (≈ 9.96 µM) | 4 (≈ 9.96 µM)
21 | 290 | 69.5 | CC1=CCC[C@H]2[C@](C)(CC3=C(O)C(=O)C=C(N[C@@H](CO)C(=O)O)C3=O)[C@@H](C)CC[C@]12C [NAKIJIQUINONE C] | 7.6 (≈ 17.6 µM) | 3.8 (≈ 8.81 µM)

From ChEMBL document CHEMBL2311476, “Inhibitory effects of metachromins L-Q and its related analogs against receptor tyrosine kinases EGFR and HER2” (Bioorg Med Chem Lett, 2013)
